Converted amounts (≈) assume the structure as drawn. “And” between values parts separate entries of the source, which are not always exact repeats. Equal entries are not always repeated. Where two headings read alike, the source gives them in different places.
Legend:
[1] = Solubility of the conjugate in water; assay type: physicochemical; settings: compared with conjugate at 3-position in Example 1
[2] = Solubility in a mixed solvent of 98 vol.% of water and 2 vol.% of ethanol (method of Example 1); assay type: physicochemical; settings: for solubility: water/ethanol 98:2, organic solvent or mixture
Description: The conjugate is dissolved at 4.39×10^-5 mole/liter (30 mg/liter) in a mixed solvent of 98 vol.% of water and 2 vol.% of ethanol.
Solubility of dehydroepiandrosterone in the same mixed solvent measured by absorbance at 235 mμ is 0.24×10^-5 mole/liter.

[3] = system: antibody which is active to the ketone group at 17-position of dehydroepiandrosterone; test: Competitive immunoassay with tritium-labelled dehydroepiandrosterone bound to antibody; assay type: binding; settings: FIG. 1, curves A and B
Description: In order to confirm the presence of C-D complex combined to AP, the combined product was analyzed by a competitive immunoassay method described in Seikagaku Jikken Koza (Biochemical Experiment Hormones (First) Page 217 to 252 (by Nippon Seikagaku Kai) (published by Tokyo Kagaku Dojin in 1977).
Dehydroepiandrosterone labelled by tritium (^3 H) was bound to the antibody which is active to the ketone group at 17-position of dehydroepiandrosterone. The combined product or dehydroepiandrosterone was added to the system of the antibody and the labelled compound to measure the amount of free ^3 H-dehydroepiandrosterone release from the system.

[4] = mixed solvent of 98 vol.% of water and 2 vol.% of ethanol, read-out: Solubility

C[C@]12CC[C@H]3[C@@H](CC=C4C[C@@H](O)CC[C@@]43C)[C@@H]1CC[C@@H]2OC(=O)COC(=O)[C@H]1O[C@@H](O[C@H]2[C@@H](O)[C@@H](CO)OC(O)[C@@H]2N)[C@H](O)[C@@H](O)[C@@H]1O (mixture of isomers) [Example 3, Conjugate of dehydroepiandrosterone (hereinafter referring as to DHS) and chondrosine at 17-position with a binding agent of bromoacetyl bromide]
solubility of the conjugate in water [1]: substantially same with that of the conjugate at 3-position in Example 1

C[C@]12CCC(OC(=O)[C@H]3OC(O)[C@H](N)[C@@H](O)[C@@H]3O)CC1=CC[C@@H]1[C@@H]2CC[C@]2(C)C(=O)CC[C@@H]12 (mixture of isomers) [Example 4, Conjugate of DHS and 2-amino-2-deoxy-α-D-glucuronic acid]
solubility [2, 4]: 40.2 µM

C[C@]12CC[C@H](OC(=O)COC(=O)[C@H]3O[C@@H](O[C@H]4[C@@H](O)[C@@H](CO)OC(O)[C@@H]4N)[C@H](O)[C@@H](O)[C@@H]3O)CC1=CC[C@@H]1[C@@H]2CC[C@]2(C)C(=O)CC[C@@H]12 (stereo partly drawn) [Example 1, conjugate of 3β-hydroxy-5-androsten-17-one(dehydroepiandrosterone) at 3-position and 2-amino-2-deoxy-3-O-β-glucopyranurosyl-D-galactose (chondrosine) at 6-position with a binding agent of bromoacetyl bromide]
solubility of the conjugate relative to the non-conjugate dehydroepiandrosterone ([2]; versus dehydroepiandrosterone, same mixed solvent): more than 18 times
solubility [2, 4]: 43.9 µM and 30 µg/mL

C[C@]12CC[C@@H]3c4ccc(O)cc4CC[C@H]3[C@@H]1CC[C@@H]2OC(=O)COC(=O)[C@H]1O[C@@H](O[C@H]2[C@@H](O)[C@@H](CO)OC(O)[C@@H]2N)[C@H](O)[C@@H](O)[C@@H]1O (stereo partly drawn) [Example 2, conjugate of 1,3,5(10)-estratriene-3,17β-diol (estradiol) and chondrosine at 17-position with a binding agent of bromoacetyl bromide]
solubility of the product relative to that of estradiol ([2]; versus estradiol, method of Example 1): about 20 times
solubility [2, 4]: 65 µM

C[C@]12CC[C@H](O)CC1=CC[C@@H]1[C@@H]2CC[C@]2(C)C(=O)CC[C@@H]12 [dehydroepiandrosterone, 3β-hydroxy-5-androsten-17-one, reference compound]
amount of free ^3 H-dehydroepiandrosterone released / binding to the antibody [3]: the amount of free ^3 H-dehydroepiandrosterone was increased by the addition of the combined product or dehydroepiandrosterone whereby the their binding to the antibody is found
solubility ([2]; same mixed solvent, measured by absorbance at 235 mμ, read-out: Solubility of dehydroepiandrosterone): 2.4 µM (≈ 0.692 µg/mL)

Source: patent US4296233A, “Conjugate of amino sugar-steroid hormone” (Kureha Kagaku Kogyo Kabushiki Kaisha, priority 1978, dated 1981)
